According to PubChem BioAssay (NCI):
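Following 48 hours of exposure in 96-well plates, responses at five concentrations were used to interpolate endpoints linearly. GI50 = concentration required for 50% inhibition of growth. Definition used: TGI = concentration required for complete inhibition of growth.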

Columns and labels:
Test in all cases: growth of human tumour cells (NCI), 48 h
786-0 renal = system: 786-0 renal
CCRF-CEM leukemia = system: CCRF-CEM leukemia
HCT-116 colon = system: HCT-116 colon
HS 578T breast = system: HS 578T breast
KM12 colon = system: KM12 colon
MOLT-4 leukemia = system: MOLT-4 leukemia
NCI-H226 lung = system: NCI-H226 lung
NCI/ADR-RES ovarian = system: NCI/ADR-RES ovarian
SF-295 CNS = system: SF-295 CNS
SNB-75 CNS = system: SNB-75 CNS

SMILES: CS(=O)(=O)N1CCC(n2c(=O)c(Oc3ccc(F)cc3F)cc3cnc(NC4CCOCC4)nc32)CC1
- GI50 (786-0 renal): > 25 µM
- TGI (786-0 renal): > 25 µM
- GI50 (CCRF-CEM leukemia): > 25 µM
- TGI (CCRF-CEM leukemia): > 25 µM
- GI50 (HCT-116 colon): > 25 µM
- TGI (HCT-116 colon): > 25 µM
- GI50 (HS 578T breast): > 11.6 µM
- TGI (HS 578T breast): > 25 µM
- GI50 (KM12 colon): > 25 µM
- TGI (KM12 colon): > 25 µM
- GI50 (MOLT-4 leukemia): > 25 µM
- TGI (MOLT-4 leukemia): > 25 µM
- GI50 (NCI-H226 lung): > 22.5 µM
- TGI (NCI-H226 lung): > 25 µM
- GI50 (NCI/ADR-RES ovarian): > 25 µM
- TGI (NCI/ADR-RES ovarian): > 25 µM
- GI50 (SF-295 CNS): > 25 µM
- TGI (SF-295 CNS): > 25 µM
- GI50 (SNB-75 CNS): > 25 µM
- TGI (SNB-75 CNS): > 25 µM

SMILES: CN1CCN(C(=O)[C@@]2(C)CC[C@]3(C)CC[C@]4(C)C(=CC[C@@H]5[C@@]6(C)CCC(=O)NC(C)(C)[C@@H]6CC[C@]54C)[C@@H]3C2)CC1
- GI50 (786-0 renal): 1.58 µM
- TGI (786-0 renal): 2.98 µM
- GI50 (CCRF-CEM leukemia): 1.58 µM
- TGI (CCRF-CEM leukemia): 4.43 µM
- GI50 (HCT-116 colon): 1.13 µM
- TGI (HCT-116 colon): 2.45 µM
- GI50 (HS 578T breast): 2.06 µM
- TGI (HS 578T breast): 6.78 µM
- GI50 (KM12 colon): 1.56 µM
- TGI (KM12 colon): 3.13 µM
- GI50 (MOLT-4 leukemia): 1.52 µM
- TGI (MOLT-4 leukemia): 3.66 µM
- GI50 (NCI-H226 lung): 4.14 µM
- TGI (NCI-H226 lung): 21.4 µM
- GI50 (NCI/ADR-RES ovarian): 3 µM
- TGI (NCI/ADR-RES ovarian): 11.9 µM
- GI50 (SF-295 CNS): 1.53 µM
- TGI (SF-295 CNS): 3.07 µM
- GI50 (SNB-75 CNS): 1.57 µM
- TGI (SNB-75 CNS): 3.34 µM

SMILES: COc1cc(OC)cc(Oc2cnc3cc(N)cc(N)c3n2)c1
- GI50 (786-0 renal): 15.2 µM
- TGI (786-0 renal): 29 µM
- GI50 (CCRF-CEM leukemia): 28.5 µM
- TGI (CCRF-CEM leukemia): > 100 µM
- GI50 (HCT-116 colon): 6.47 µM
- TGI (HCT-116 colon): 20.2 µM
- GI50 (HS 578T breast): 24.7 µM
- TGI (HS 578T breast): 87.8 µM
- GI50 (KM12 colon): 10.3 µM
- TGI (KM12 colon): 24.1 µM
- GI50 (MOLT-4 leukemia): 5.37 µM
- TGI (MOLT-4 leukemia): 20.7 µM
- GI50 (NCI-H226 lung): 17.1 µM
- TGI (NCI-H226 lung): 38 µM
- GI50 (NCI/ADR-RES ovarian): 16.1 µM
- TGI (NCI/ADR-RES ovarian): 43.5 µM
- GI50 (SF-295 CNS): 11.6 µM
- TGI (SF-295 CNS): 32.7 µM
- GI50 (SNB-75 CNS): 3.92 µM
- TGI (SNB-75 CNS): 18.6 µM

SMILES: CCc1ccccc1NC(=O)C(C#N)C1=C(Cl)C(=O)c2ccccc2C1=O (centres undefined)
- TGI (786-0 renal): 31.4 µM
- TGI (CCRF-CEM leukemia): > 100 µM
- TGI (HCT-116 colon): 28.8 µM
- TGI (HS 578T breast): 60.6 µM
- TGI (KM12 colon): 28.4 µM
- TGI (MOLT-4 leukemia): > 100 µM
- TGI (NCI-H226 lung): 30.4 µM
- TGI (NCI/ADR-RES ovarian): 34.2 µM
- TGI (SF-295 CNS): 52.6 µM
- TGI (SNB-75 CNS): 35.4 µM

SMILES: Cc1nn(C(=O)c2ccccc2O)c2c1C(c1ccc(O)cc1O)SC(N)=N2 (centres undefined)
- TGI (786-0 renal): > 10 µM
- TGI (CCRF-CEM leukemia): > 10 µM
- TGI (HCT-116 colon): > 10 µM
- TGI (HS 578T breast): 8.84 µM
- TGI (KM12 colon): > 10 µM
- TGI (MOLT-4 leukemia): > 10 µM
- TGI (NCI-H226 lung): 3.82 µM
- TGI (NCI/ADR-RES ovarian): 9.33 µM
- TGI (SF-295 CNS): > 10 µM
- TGI (SNB-75 CNS): > 10 µM

SMILES: CCN1CCC(CC(=O)Nc2n[nH]c3nnc(-c4cccc(F)c4F)cc23)CC1
- GI50 (786-0 renal): > 25 µM
- TGI (786-0 renal): > 25 µM
- GI50 (CCRF-CEM leukemia): > 25 µM
- TGI (CCRF-CEM leukemia): > 25 µM
- GI50 (HCT-116 colon): 24.9 µM
- TGI (HCT-116 colon): > 25 µM
- GI50 (HS 578T breast): > 19.9 µM
- TGI (HS 578T breast): > 25 µM
- GI50 (KM12 colon): > 25 µM
- TGI (KM12 colon): > 25 µM
- GI50 (MOLT-4 leukemia): > 25 µM
- TGI (MOLT-4 leukemia): > 25 µM
- GI50 (NCI-H226 lung): 22.5 µM
- TGI (NCI-H226 lung): > 25 µM
- GI50 (NCI/ADR-RES ovarian): > 25 µM
- TGI (NCI/ADR-RES ovarian): > 25 µM
- GI50 (SF-295 CNS): 18 µM
- TGI (SF-295 CNS): > 25 µM
- TGI (SNB-75 CNS): > 25 µM

SMILES: Cn1c(-c2ccc(-c3cc(-c4cccs4)c(-c4cccs4)n3C)cc2)cc(-c2cccs2)c1-c1cccs1
- TGI (786-0 renal): > 100 µM
- TGI (CCRF-CEM leukemia): > 100 µM
- TGI (HCT-116 colon): > 100 µM
- TGI (HS 578T breast): > 100 µM
- TGI (KM12 colon): > 100 µM
- TGI (MOLT-4 leukemia): > 100 µM
- TGI (NCI-H226 lung): > 100 µM
- TGI (NCI/ADR-RES ovarian): > 100 µM
- TGI (SF-295 CNS): > 100 µM
- TGI (SNB-75 CNS): > 100 µM
